Laboratory results as given in US11878973B2, “Bicyclic compounds and their uses” (NOVARTIS AG, priority 2021, dated 2024).

What was measured:
SW48 xenografts = settings: 240 mg/kg qd oral
WRN helicase = WRN helicase (Homo sapiens (Human), UniProt Q14191); assay: In vitro enzymatic activity assay on WRN helicase (DNA dependent ATPase assay, ADP-Glo); type: biochemical; settings: geometric means of at least 2 determinations; read-out: WRN ATPase Activity (IC50)
Procedure, shortened: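 The WRN helicase core (aa N517-P1238), 10 nM, hydrolysed 300 µM ATP in the presence of 0.2 nM FLAP26 DNA (Tris pH 7.5, 2 mM MgCl2, 50 mM NaCl) for 30 min at room temperature. ADP formed was quantified by ADP-Glo luminescence.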

SW48 cells = assay: Proliferation assay SW48 (CellTiterGlo, 96 hours); settings: Homo sapiens, SW48, read-out: Proliferation Assay SW48 (GI50)
DLD1-WRN-KO cells = assay: Proliferation assay DLD1-WRN-KO (CellTiterGlo, 96 hours; off-target effects); settings: Homo sapiens, read-out: Proliferation Assay DLD1-WRN-KO (GI50)

WRN helicase, sequence (Q14191 517-1238): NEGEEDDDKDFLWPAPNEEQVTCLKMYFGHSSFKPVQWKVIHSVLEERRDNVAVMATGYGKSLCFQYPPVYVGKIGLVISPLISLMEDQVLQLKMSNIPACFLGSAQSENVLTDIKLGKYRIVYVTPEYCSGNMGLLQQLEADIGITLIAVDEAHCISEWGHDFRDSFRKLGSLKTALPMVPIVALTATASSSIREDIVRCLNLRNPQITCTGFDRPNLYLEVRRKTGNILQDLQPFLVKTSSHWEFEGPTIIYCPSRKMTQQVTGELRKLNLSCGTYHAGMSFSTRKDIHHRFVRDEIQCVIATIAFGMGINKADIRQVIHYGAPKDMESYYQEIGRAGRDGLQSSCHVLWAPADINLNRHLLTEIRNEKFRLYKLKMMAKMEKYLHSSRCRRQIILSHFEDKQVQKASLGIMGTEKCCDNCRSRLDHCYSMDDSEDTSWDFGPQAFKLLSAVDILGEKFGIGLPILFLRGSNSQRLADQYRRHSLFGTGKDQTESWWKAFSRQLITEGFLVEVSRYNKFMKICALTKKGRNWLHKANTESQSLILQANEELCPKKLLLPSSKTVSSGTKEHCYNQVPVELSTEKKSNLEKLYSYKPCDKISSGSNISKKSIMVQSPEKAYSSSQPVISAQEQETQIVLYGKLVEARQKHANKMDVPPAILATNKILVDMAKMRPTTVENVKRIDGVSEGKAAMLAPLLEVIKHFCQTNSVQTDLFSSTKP

IC50 (WRN helicase) [nM]	GI50 (SW48 cells) [nM]	GI50 (DLD1-WRN-KO cells) [nM]	Structure (SMILES)	antitumor response (SW48 xenografts; SW48 xenografts in nude mice)	T/C % value (SW48 xenografts; day 18, SW48 xenografts in nude mice, p<0.05 vs vehicle) [%]	tumor regression (mean tumor volume) (SW48 xenografts; day 18, in the 4/7 surviving animals) [%]
–	–	–	CCc1c(N2CCN(C(=O)c3ncccc3O)CC2)c(=O)n2nc(C3=CCOCC3)nc2n1CC(=O)Nc1ccc(C(F)(F)F)cc1C [Example 58, 2-(2-(3,6-dihydro-2H-pyran-4-yl)-5-ethyl-6-(4-(3-hydroxypicolinoyl)piperazin-1-yl)-7-oxo-[1,2,4]triazolo[1,5-a]pyrimidin-4(7H)-yl)-N-(2-methyl-4-(trifluoromethyl)phenyl)acetamide]	induced an antitumor response	−9	−26
60	210	> 10000	O=C(Cn1c(C2CC2)c(N2CCN(C(=O)c3ncccc3O)CC2)c(=O)n2nc(C3=CCOCC3)nc12)Nc1ccc(C(F)(F)F)cc1 [Example 134, 2-(5-cyclopropyl-2-(3,6-dihydro-2H-pyran-4-yl)-6-(4-(3-hydroxypicolinoyl)piperazin-1-yl)-7-oxo-[1,2,4]triazolo[1,5-a]pyrimidin-4(7H)-yl)-N-(4-(trifluoromethyl)phenyl)acetamide]	–	–	–
200	100	> 10000	CCc1c(N2CCN(C(=O)c3ncccc3O)CC2)c(=O)n2nc(C3=CCCCO3)nc2n1CC(=O)Nc1ccc(C(F)(F)F)nc1C [Example 55, 2-(2-(3,4-dihydro-2H-pyran-6-yl)-5-ethyl-6-(4-(3-hydroxypicolinoyl)piperazin-1-yl)-7-oxo-[1,2,4]triazolo[1,5-a]pyrimidin-4(7H)-yl)-N-(2-methyl-6-(trifluoromethyl)pyridin-3-yl)acetamide]	–	–	–
